What was measured:
[1] = system: Salmonella (S. typhimurium, S. enteritidis, S. heidelberg); test: Salmonella elimination in contaminated soybean meal: independent ferments vs. mixes (synergistic effect); type: cell-based; settings: 25° C. - 12% DBM; for Average (n = 3): Salmonella count; for LOG10 (CFU/g) / Reduction %: Salmonella
Description: In order to assess the effectiveness of the mix of the invention in the matrix of interest, an appropriate working protocol was prepared. Initially, 500 g of soybean meal were infected with 50 mL of Salmonella solution whose composition was: 10^6 CFUS. typhimurium/mL, 10^6 CFUS. enteritidis /mLand 10^6 CFUS. heidelberg /mL in equal amounts. […] 50 g of the wet meal obtained (≈25% moisture content on dry basis) were mixed within the dry meal (≈10% moisture content dry basis) and were stirred for 10 minutes. […] Daily determinations of Salmonella colony forming units were performed on this contaminated meal. To this end, 40.5 g of BPW to 4.5 g of the resulting meal were added and vigorously stirred, and then 100μL of this solution, were plated onto Salmonella-Shigella agar (SS Agar). When microorganisms were used in the protecting mixes, concentrations were carefully balanced, and the amount of bacteria added was always the same.
In the cases in which solutions with ferments were used for protection purposes, cell concentration was of about 10^8 CFU/mL.
Using the protocol described above, the effects caused by the individual strains were assessed and then compared with the effect obtained after mixing them together. […] In order to come closer to the actual values, whenever a ND value was obtained using the methodology described above, a new dilution factor was applied; each time by adding only 18 g of buffer (stirring thoroughly and then spinning), and 200 μL of this solution were plated for recounting. […] This new protocol was only used to determine the effect of the different mixes. In turn, the results obtained herein are shown using the following formula: […]
Thus, the percentage of Salmonella elimination in meal was calculated for different mixes, as well as for each ferment individually.

[2] = system: Aspergillus niger ATCC 16404; test: Protection against fungi: A. niger in premixed soybean meal; type: cell-based; settings: 25° C. - 12% DBM; for Average (n = 3): A. niger count; for LOG10 (CFU/g): A. niger
Description: For the determination of fungal CFU, 20 grams of soybean meal were added to 180 mL of sterile tap water with Tween 80, which was vigorously stirred. Serial dilutions of the sample were carried out in order to perform recounting on the appropriate plates, in a Czapek-Dox agar medium.

[3] = 0 days, first series (0-6 days)
[4] = 0 days, second series (0-3 days)
[5] = 1 day, second series (0-3 days)
[6] = 2 days, first series (0-6 days)
[7] = 2 days, second series (0-3 days)
[8] = 3 days, first series (0-6 days)
[9] = 3 days, second series (0-3 days)
[10] = 4 days, first series (0-6 days)
[11] = 5 days, first series (0-6 days)
[12] = 6 days, first series (0-6 days)

## CCC(=O)O [Propionic Acid]
[1]; [3]
  Average (n = 3): 199.67
  LOG10 (CFU/g): 3.65 LOG10 (CFU/g)
  Reduction %: 0.00%
[1]; [4]
  Average (n = 3): 199.67
  LOG10 (CFU/g): 3.65 LOG10 (CFU/g)
  Reduction %: 0.00%
[1]; 1 day, first series (0-6 days)
  Average (n = 3): 145
  LOG10 (CFU/g): 3.51 LOG10 (CFU/g)
  Reduction %: 3.81%
[1]; [5]
  Average (n = 3): 145
  LOG10 (CFU/g): 3.51 LOG10 (CFU/g)
  Reduction %: 3.81%
[1]; [6]
  Average (n = 3): 110
  LOG10 (CFU/g): 3.39 LOG10 (CFU/g)
  Reduction %: 7.10%
[1]; [7]
  Average (n = 3): 110
  LOG10 (CFU/g): 3.39 LOG10 (CFU/g)
  Reduction %: 7.10%
[1]; [8]
  Average (n = 3): 90
  LOG10 (CFU/g): 3.30 LOG10 (CFU/g)
  Reduction %: 9.49%
[1]; [9]
  Average (n = 3): 90
  LOG10 (CFU/g): 3.30 LOG10 (CFU/g)
  Reduction %: 9.49%
[1]; [10]
  Average (n = 3): 60.67
  LOG10 (CFU/g): 3.13 LOG10 (CFU/g)
  Reduction %: 14.22%
[1]; [11]
  Average (n = 3): 57
  LOG10 (CFU/g): 3.10 LOG10 (CFU/g)
  Reduction %: 14.93%
[1]; [12]
  Average (n = 3): 38.33
  LOG10 (CFU/g): 2.93 LOG10 (CFU/g)
  Reduction %: 19.76%
[2]; 0 days
  Average (n = 3): 199.76
  LOG10 (CFU/g): 3.65 LOG10 (CFU/g)
[2]; 1 day
  Average (n = 3): 152
  LOG10 (CFU/g): 3.53 LOG10 (CFU/g)
[2]; 2 days
  Average (n = 3): 121.33
  LOG10 (CFU/g): 3.43 LOG10 (CFU/g)
[2]; 3 days
  Average (n = 3): 91.67
  LOG10 (CFU/g): 3.31 LOG10 (CFU/g)
[2]; 4 days
  Average (n = 3): 78
  LOG10 (CFU/g): 3.24 LOG10 (CFU/g)
[2]; 5 days
  Average (n = 3): 57
  LOG10 (CFU/g): 3.10 LOG10 (CFU/g)
[2]; 6 days
  Average (n = 3): 38
  LOG10 (CFU/g): 2.93 LOG10 (CFU/g)
